Data taken from patent US20050101542A1, “Combination therapy for controlling appetites” (Regents of the University of California, priority 2002, published 2005).
“And” between values parts separate entries of the source, which are not always exact repeats. Identical values can stand only once.

Assays:
Hepatocyte = assay: [14C]oleate oxidation to ketone bodies in hepatocytes; assay type: cell-based, rat; details: 10 min incubation
Description: OEA-like compounds and modulators can be used to modulate fat metabolism. Such compounds can also be assayed for their effect on fatty acid metabolism. The effect of the candidate compound on fatty acid metabolism can be measured by measurements of fatty acid oxidation in primary cultures of liver cells. Hepatocytes may be used to determine the rate of oleate oxidation to ketone bodies and carbon dioxide. Such cells can be isolated from adult rat liver by enzymatic digestion as described by Beynen et al. in Diabetes 28:828 (1979). Cells typically are cultured in suspension and incubated in Krebs-Henseleit's bicarbonate medium supplemented with bovine serum albumin and glucose as described by Guzman & Geelen, Biochem. J., 287:487 (1992). The protein concentration of the cultured cells can be determined and cells seeded in 2 ml media so that 4-6 mg protein per ml is present in the reaction mixture. […] Protein concentration can be determined using a Lowry assay. The rate of oleate conversion into ketone bodies may be expressed as nmol of oleate oxidized per hour per mg protein and may be determined using liquid scintillation counting. […]

[1] = Liver OEA content after OEA injection in wild-type and PPAR-α null mice (HPLC/MS); assay type: in vivo, mouse; details: 1 h after OEA 5 mg kg^−1 i.p.
iNOS = assay: Transrepression of iNOS expression in mouse jejunum; assay type: in vivo; details: jejunum of C57BL/6J mice; OEA or oleic acid 10, Wy-14643 30 mg kg^−1 i.p.
Protocol: Tissues were stored in RnaLater™ (Ambion), extracted total RNA with TRIzol™ (Invitrogen) and quantified it with Ribogreen™ (Molecular Probes). cDNA was synthesized by using SuperscriptII RNase H-reverse transcriptase (Invitrogen).
Reverse transcription of total RNA (2 μg) was performed using Oligo(dT)12-18 primer (0.2 μg) for 50 min at 42° C. Real Time Quantitative (RTQ) PCR was conducted using an ABI PRISM 7700 sequence detection system (Applied Biosystems). Primer/probe sets were designed using the Primer Express™ software and gene sequences available from the Genebank™ database. Primers and fluorogenic probes were synthesized by TIB (Adelphia). The primer/probe sequences for the mouse genes were:
RNA levels were normalized by using glyceraldehyde 3-phosphate dehydrogenase (GAPDH) as an internal standard. mRNA levels were measured by generating six-point serial standard curves using mouse total RNA. Estimates of relative mRNA abundance (in arbitrary units) were made by using the CT value (Schmittgen et al., 2000). Relative quantifications of RNAs of interest were made by using the 2^ΔCT formula, in which ΔCT was calculated by subtracting the CT value for GAPDH from the CT value for the gene of interest. This formula was validated for each primer/probe set by using six-point serial standard curves.

[2] = Acute food intake in 24-h food-deprived rats, i.p. dosing; assay type: in vivo, rat
Protocol: Feeding experiments. Acute experiments. Food intake was measured in 24-h food-deprived rats (Navarro, et al., J. Neurochem., 67:1982-1991 (1996)), administering drugs 15 min before food presentation. Subchronic experiments. Ad libitum fed rats received vehicle injections for three days. On day four, the animals were divided in two equal groups and gave them daily injections of vehicle or OEA (5 mg per kg at 1900 h) for 7 consecutive days, while measuring body weight, food intake and water intake.
The effects of systemically administered OEA or an OEA-like compound or OEA-like modulator on food intake in rats can be assessed using a 24 h fast. […] To define the selectivity of this response, various OEA analogs were evaluated for their ability to produce hypophagia.

human PPARδ = target: T1, human PPARδ (Homo sapiens, UniProt Q03181); assay: GAL4 chimeric receptor transactivation assay in HeLa cells, PPARδ; assay type: cell-based; details: read-out: EC50 for PPARβ activation
T1 construct: expressed in transfected cells; host or cells: HeLa (clonal reporter line HLR, stably transfected with pFA-PPARδ)
T1 sequence (Q03181 211-439 limits assumed): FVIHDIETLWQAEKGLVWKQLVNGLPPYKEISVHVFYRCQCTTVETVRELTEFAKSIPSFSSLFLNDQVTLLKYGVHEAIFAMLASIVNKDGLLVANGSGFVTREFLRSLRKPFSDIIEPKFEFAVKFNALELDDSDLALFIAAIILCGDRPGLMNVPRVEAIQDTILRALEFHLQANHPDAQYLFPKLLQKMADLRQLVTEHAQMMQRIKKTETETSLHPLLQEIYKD
Protocol: Eighteen hours following transfection, the culture media was replaced with supplemented DMEM containing hygromycin (100 μg-ml^−1, Calbiochem). After 4 weeks in culture, the surviving clones were isolated and analyzed by luciferase assay. […] The cells were cultured in supplemented DMEM containing hygromycin and G418. For transactivation assays, cells were seeded in 6-well plates (50,000 cells per well) and incubated for 7 hours in supplemented DMEM containing hygromycin and G418, plus appropriate concentrations of test compounds. Dual-luciferase reporter assay system (Promega) and an MLX Microtiter® plate luminometer (Dynex) were used to determine luciferase activity in cell lysates.

[3] = target: T2, cannabinoid binding to rat brain membranes (Rattus norvegicus, UniProt P20272); assay: Displacement of cannabinoid binding to rat brain membranes; details: rat brain membranes in vitro
T2 construct: from tissue; host or cells: rat brain membranes
T2 sequence (P20272 whole entry): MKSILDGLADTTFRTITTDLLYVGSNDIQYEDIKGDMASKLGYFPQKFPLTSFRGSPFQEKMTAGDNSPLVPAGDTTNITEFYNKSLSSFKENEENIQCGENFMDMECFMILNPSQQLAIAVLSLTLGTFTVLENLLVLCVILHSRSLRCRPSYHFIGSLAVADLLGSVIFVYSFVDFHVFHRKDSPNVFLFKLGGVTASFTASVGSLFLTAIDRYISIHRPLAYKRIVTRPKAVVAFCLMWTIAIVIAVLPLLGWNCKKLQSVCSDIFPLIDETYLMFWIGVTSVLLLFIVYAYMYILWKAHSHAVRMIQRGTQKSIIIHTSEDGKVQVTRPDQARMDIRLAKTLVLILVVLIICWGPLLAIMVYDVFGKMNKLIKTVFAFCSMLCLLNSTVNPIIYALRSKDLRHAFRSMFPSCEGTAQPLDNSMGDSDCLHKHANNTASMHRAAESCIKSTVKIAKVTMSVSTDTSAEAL

[4] = Other behavioral assays (elevated plus maze, open field, hot plate, rectal temperature); assay type: in vivo, rat
Protocol: Other behavioral assays. The elevated plus maze test was conducted as described (Navarro, et al., Neuroreport, 8:491-496 (1997)) after the administration of vehicle or OEA (20 mg per kg, i.p.). Horizontal activity in an open field (Beltramo et al., J. Neurosci., 20:3401-3407 (2000)) and pain threshold in the hot plate test (55° C.) (Beltramo et al., Science, 277:1094-1097 (1997)) were measured 15 min after injection of vehicle or OEA (20 mg per kg). Rectal temperature was measured using a digital thermometer (Martin-Calderón et al., Eur. J. Pharmacol., 344:77-86. (1998)).

[5] = Food intake in vagotomized or capsaicin-treated rats, Example 3; assay type: in vivo, rat; details: rats; OEA 10, Wy-14643 40 mg kg^−1 i.p.

Compound: CCCCCCCC/C=C\CCCCCCCC(=O)NCCO [OEA, Z-2-hydroxyethyl octadec-9-enamide]
- Stimulatory effect of 10 μM OEA on [14C]oleate oxidation to ketone bodies (Hepatocyte): 21+−6% and 21 ± 6 (n = 4) %
- Liver OEA content ([1]; PPAR-α-null mice): 251.2 ± 28.2 pmol/g
- Liver OEA content ([1]; wild-type mice): 150.5 ± 19.7 pmol/g
- iNOS expression (iNOS): significantly decreased
- food intake (hypophagia) ([2]; 24-h food-deprived rats, i.p.): dose- and time-dependent suppression of food intake
- water intake ([2]; acute, 5 or 20 mg per kg): did not alter
- half-maximally effective dose for hypophagia ([2]; i.p., rats): 5 mg per kg
- EC50 (human PPARδ): 1.1 ± 0.1 µM
- displacement of cannabinoid binding [3]: did not displace
- anxiety-like symptoms (elevated plus maze) ([4]; acute): did not produce
- body temperature ([4]; acute, 5 or 20 mg per kg): did not alter
- pain threshold (hot plate) ([4]; acute, 5 or 20 mg per kg): did not alter
- motor activity (open field) ([4]; at a dose substantially higher than those required to produce hypophagia): reduced
- food intake after vagotomy or capsaicin treatment [5]: no effect
